Assays:
[1] = tested on: POLCO; assay: Pre-emergence herbicidal action against POLCO; type: in vivo, Polygonum convolvulus; details: dosage 80 g/ha
How it was run: (§1)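 Seeds sown in sandy loam, soil-covered; compound sprayed on soil surface pre-emergence. Application: WP/EC, 600–800 l/ha, 0.2% wetting agent. Readout: visual % damage at 3 weeks.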

[2] = tested on: PHBPU; assay: Post-emergence herbicidal action against PHBPU; type: in vivo, Pharbitis purpurea
How it was run: (§2)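 Sandy loam, greenhouse; treatment 2–3 weeks after sowing, one-leaf stage. Aqueous suspension or emulsion from WP/EC sprayed on foliage (600–800 l/ha, 0.2% wetting agent). Readout: visual % action, ~3 weeks.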

[3] = tested on: VERPE; assay: Pre-emergence herbicidal action against VERPE; type: in vivo, Veronica persica
How it was run: as §1

[4] = tested on: VIOTR; assay: Pre-emergence herbicidal action against VIOTR; type: in vivo, Viola tricolor
How it was run: as §1

[5] = tested on: AVEFA; assay: Post-emergence herbicidal action against AVEFA; type: in vivo, Avena fatua; details: visual assessment about 3 weeks after treatment, 100% = plants have died, 0% = like control plants
How it was run: as §2

[6] = tested on: DIGSA; assay: Pre-emergence herbicidal action against DIGSA; type: in vivo, Digitaria sanguinalis
How it was run: as §1

[7] = tested on: DIGSA; assay: Post-emergence herbicidal action against DIGSA; type: in vivo, Digitaria sanguinalis; details: for Post-emergence action against DIGSA in %: 5 g/ha; for Post-emergence action against DIGSA: 20 g/ha
How it was run: as §2

[8] = tested on: SETVI; assay: Post-emergence herbicidal action against SETVI; type: in vivo, Setaria viridis
How it was run: as §2

[9] = tested on: ABUTH; assay: Post-emergence herbicidal action against ABUTH; type: in vivo, Abutilon theophrasti; details: visual assessment about 3 weeks after treatment vs untreated controls
How it was run: as §2

[10] = tested on: VERPE; assay: Post-emergence herbicidal action against VERPE; type: in vivo, Veronica persica; details: 20 g/ha
How it was run: as §2

[11] = tested on: AMARE; assay: Post-emergence herbicidal action against AMARE; type: in vivo, Amaranthus retroflexus; details: 20 g/ha, visual assessment about 3 weeks after treatment, 100% = plants have died, 0% = like control plants
How it was run: as §2

[12] = tested on: ALOMY; assay: Post-emergence herbicidal action against ALOMY; type: in vivo, Alopecurus myosuroides; details: visual assessment about 3 weeks after treatment vs untreated controls
How it was run: as §2

[13] = tested on: AMARE; assay: Pre-emergence herbicidal action against AMARE; type: in vivo, Amaranthus retroflexus
How it was run: as §1

[14] = tested on: ABUTH; assay: Pre-emergence herbicidal action against ABUTH; type: in vivo, Abutilon theophrasti
How it was run: as §1

[15] = tested on: SETVI; assay: Pre-emergence herbicidal action against SETVI; type: in vivo, Setaria viridis
How it was run: as §1

[16] = tested on: ALOMY; assay: Pre-emergence herbicidal action against ALOMY; type: in vivo, Alopecurus myosuroides
How it was run: as §1

[17] = tested on: PHBPU; assay: Pre-emergence herbicidal action against PHBPU; type: in vivo, Pharbitis purpurea
How it was run: as §1

[18] = tested on: AVEFA; assay: Pre-emergence herbicidal action against AVEFA; type: in vivo, Avena fatua; details: pre-emergence
How it was run: as §1

[19] = tested on: MATIN; assay: Pre-emergence herbicidal action against MATIN; type: in vivo, Matricaria inodora
How it was run: as §1

[20] = tested on: ECHCG; assay: Pre-emergence herbicidal action against ECHCG; type: in vivo, Echinochloa crus-galli; details: 80 g/ha
How it was run: as §1

[21] = tested on: ECHCG; assay: Post-emergence herbicidal action against ECHCG; type: in vivo, Echinochloa crus-galli
How it was run: as §2

[22] = tested on: VIOTR; assay: Post-emergence herbicidal action against VIOTR; type: in vivo, Viola tricolor
How it was run: as §2

[23] = tested on: MATIN; assay: Post-emergence herbicidal action against MATIN; type: in vivo, Matricaria inodora
How it was run: as §2

[24] = 20 g/ha, scored visually after 3 weeks vs untreated controls, 100% = plants have died, 0% = like control plants
[25] = 80 g/ha, scored visually after 3 weeks vs untreated controls (100% = plants have died, 0% = like control plants)
[26] = dosage 20 g/ha, scored visually after 3 weeks vs untreated controls, 100% = plants have died, 0% = like control plants
[27] = 80 g/ha, pre-emergence, scored visually after 3 weeks vs untreated controls (100% = plants have died, 0% = like control plants)
[28] = Tripleurospermum inodorum, 504 h, dosage 20 g/ha

Structure (SMILES): CCn1nnnc1NC(=O)c1ccc(C(F)(F)F)c(C(=O)NCCOC)c1C [Example 2-34]
- Pre-emergence action against POLCO in % [1]: 90%
- Post-emergence action against PHBPU in % ([2]; dosage 5 g/ha): 90%
- Post-emergence action against PHBPU in % ([2]; dosage 20 g/ha): 100%
- Pre-emergence action against VERPE in % ([3]; dosage 20 g/ha): 90%
- Pre-emergence action against VERPE in % ([3]; dosage 80 g/ha): 90%
- Pre-emergence action against VIOTR in % ([4]; dosage 20 g/ha): 100%
- Pre-emergence action against VIOTR in % ([4]; dosage 80 g/ha): 100%
- Post-emergence action at 5 g/ha against AVEFA in % ([5]; 5 g/ha): 80%
- Post-emergence action at 20 g/ha against AVEFA in % ([5]; 20 g/ha): 80%
- Pre-emergence action against DIGSA in % ([6]; dosage 20 g/ha): 100%
- Pre-emergence action against DIGSA in % ([6]; dosage 80 g/ha): 100%
- Post-emergence action against DIGSA in % [7]: 80%
- Post-emergence action against DIGSA [7]: 100%
- Post-emergence action against SETVI in % ([8]; dosage 5 g/ha): 80%
- Post-emergence action against SETVI in % ([8]; dosage 20 g/ha): 90%
- Post-emergence action against ABUTH in % ([9]; dosage 5 g/ha): 90%
- Post-emergence action against ABUTH in % ([9]; dosage 20 g/ha): 90%
- Post-emergence action against VERPE in % [10]: 80%
- Post-emergence action at 20 g/ha against AMARE in % [11]: 100%
- Post-emergence action against ALOMY in % ([12]; dosage 20 g/ha): 100%
- Pre-emergence action against AMARE in % [13, 24]: 90%
- Pre-emergence action against AMARE in % [13, 25]: 100%
- Pre-emergence action against ABUTH (herbicidal activity) [14, 25]: 100%
- Pre-emergence action against ABUTH (herbicidal activity in percent) [14, 26]: 80%
- Pre-emergence action against SETVI in % ([15]; dosage 20 g/ha): 100%
- Pre-emergence action against SETVI in % ([15]; dosage 80 g/ha): 100%
- Pre-emergence action against ALOMY ([16]; 20 g/ha, scored visually after 3 weeks, 100% = plants have died, 0% = like control plants): 80%
- Pre-emergence action against ALOMY (herbicidal activity) [16, 27]: 90%
- Pre-emergence action against PHBPU in % ([17]; dosage 80 g/ha): 80%
- Pre-emergence action against AVEFA in % ([18]; 80 g/ha): 90%
- Pre-emergence action against MATIN in % ([19]; dosage 20 g/ha): 90%
- Pre-emergence action against MATIN in % ([19]; dosage 80 g/ha): 100%
- Pre-emergence action against ECHCG in % [20]: 90%
- Post-emergence action against ECHCG in % ([21]; dosage 5 g/ha): 90%
- Post-emergence action against ECHCG in % ([21]; dosage 20 g/ha): 100%

Structure (SMILES): CCn1nnnc1NC(=O)c1ccc(C(F)(F)F)c(C(=O)NC(C)C2CC2)c1C1CC1 (centres unmarked) [Example 2-292]
- Pre-emergence action against POLCO in % [1]: 100%
- Pre-emergence action against VERPE in % ([3]; dosage 20 g/ha): 90%
- Pre-emergence action against VERPE in % ([3]; dosage 80 g/ha): 100%
- Pre-emergence action against VIOTR in % ([4]; dosage 20 g/ha): 100%
- Pre-emergence action against VIOTR in % ([4]; dosage 80 g/ha): 100%
- Post-emergence action at 20 g/ha against AVEFA in % ([5]; 20 g/ha): 80%
- Pre-emergence action against DIGSA in % ([6]; dosage 20 g/ha): 100%
- Pre-emergence action against DIGSA in % ([6]; dosage 80 g/ha): 100%
- Post-emergence action against VIOTR in % ([22]; 20 g/ha): 80%
- Post-emergence action against DIGSA in % [7]: 90%
- Post-emergence action against DIGSA [7]: 90%
- Post-emergence action against SETVI in % ([8]; dosage 20 g/ha): 80%
- Post-emergence action against ABUTH in % ([9]; dosage 20 g/ha): 80%
- Post-emergence action against VERPE in % [10]: 80%
- Post-emergence action at 20 g/ha against AMARE in % [11]: 90%
- Post-emergence action against ALOMY in % ([12]; dosage 20 g/ha): 80%
- Pre-emergence action against AMARE in % [13, 24]: 100%
- Pre-emergence action against AMARE in % [13, 25]: 100%
- Pre-emergence action against ABUTH (herbicidal activity) [14, 25]: 100%
- Pre-emergence action against ABUTH (herbicidal activity in percent) [14, 26]: 100%
- Post-emergence action against MATIN in % ([23]; dosage 5 g/ha): 80%
- Post-emergence action against MATIN in % ([23]; dosage 20 g/ha): 90%
- Pre-emergence action against SETVI in % ([15]; dosage 80 g/ha): 100%
- Pre-emergence action against ALOMY (herbicidal activity) [16, 27]: 90%
- Pre-emergence action against PHBPU in % ([17]; dosage 20 g/ha): 80%
- Pre-emergence action against PHBPU in % ([17]; dosage 80 g/ha): 90%
- Pre-emergence action against AVEFA in % ([18]; 80 g/ha): 90%
- Pre-emergence action against MATIN in % ([19]; dosage 20 g/ha): 90%
- Pre-emergence action against MATIN in % ([19]; dosage 80 g/ha): 100%
- Pre-emergence action against ECHCG in % [20]: 100%
- Post-emergence action against ECHCG in % ([21]; dosage 5 g/ha): 80%
- Post-emergence action against ECHCG in % ([21]; dosage 20 g/ha): 80%

Structure (SMILES): CCn1nnnc1NC(=O)c1ccc(C(F)F)c(C(=O)NC(C)C)c1C [Example 2-345]
- pest or weed control at 80 g/ha ([1]; Fallopia convolvulus, 504 h): 90%
- pest or weed control at 20 g/ha ([2]; Ipomoea purpurea, 504 h, dosage 20 g/ha): 100%
- pest or weed control at 80 g/ha ([3]; Veronica persica, 504 h, dosage 80 g/ha): 100%
- pest or weed control at 20 g/ha ([4]; Viola tricolor, 504 h, dosage 20 g/ha): 80%
- pest or weed control at 80 g/ha ([4]; Viola tricolor, 504 h, dosage 80 g/ha): 100%
- pest or weed control at 20 g/ha ([5]; Avena fatua, 504 h, 20 g/ha): 80%
- pest or weed control at 5 g/ha ([22]; Viola tricolor, 504 h, 5 g/ha): 90%
- pest or weed control at 20 g/ha ([22]; Viola tricolor, 504 h, 20 g/ha): 90%
- pest or weed control at 5 g/ha ([8]; Setaria viridis, 504 h, dosage 5 g/ha): 80%
- pest or weed control at 20 g/ha ([8]; Setaria viridis, 504 h, dosage 20 g/ha): 100%
- pest or weed control at 5 g/ha ([9]; Abutilon theophrasti, 504 h, dosage 5 g/ha): 90%
- pest or weed control at 20 g/ha ([9]; Abutilon theophrasti, 504 h, dosage 20 g/ha): 90%
- pest or weed control at 20 g/ha ([10]; Veronica persica, 504 h): 80%
- pest or weed control at 20 g/ha ([11]; Amaranthus retroflexus, 504 h): 100%
- pest or weed control at 5 g/ha ([12]; Alopecurus myosuroides, 504 h, dosage 5 g/ha): 80%
- pest or weed control at 20 g/ha ([12]; Alopecurus myosuroides, 504 h, dosage 20 g/ha): 80%
- pest or weed control at 20 g/ha ([13]; Amaranthus retroflexus, 504 h, 20 g/ha, scored visually after 3 weeks vs untreated controls, 100% = plants have died, 0% = like control plants): 100%
- pest or weed control at 80 g/ha ([13]; Amaranthus retroflexus, 504 h, 80 g/ha, scored visually after 3 weeks vs untreated controls, 100% = plants have died, 0% = like control plants): 100%
- pest or weed control at 80 g/ha ([14]; Abutilon theophrasti, 504 h, 80 g/ha, scored visually after 3 weeks vs untreated controls (100% = plants have died, 0% = like control plants)): 100%
- pest or weed control at 20 g/ha ([14]; Abutilon theophrasti, 504 h, dosage 20 g/ha, scored visually after 3 weeks vs untreated controls, 100% = plants have died, 0% = like control plants, read-out: Pre-emergence action against ABUTH (herbicidal activity in percent)): 90%
- pest or weed control at 5 g/ha ([23]; Tripleurospermum inodorum, 504 h, dosage 5 g/ha): 90%
- pest or weed control at 20 g/ha [23, 28]: 100%
- pest or weed control at 80 g/ha ([15]; Setaria viridis, 504 h, dosage 80 g/ha): 100%
- pest or weed control at 80 g/ha ([16]; Alopecurus myosuroides, 504 h, 80 g/ha, pre-emergence, scored visually after 3 weeks vs untreated controls (100% = plants have died, 0% = like control plants)): 80%
- pest or weed control at 80 g/ha ([17]; Ipomoea purpurea, 504 h, dosage 80 g/ha): 80%
- pest or weed control at 80 g/ha ([18]; Avena fatua, 504 h, 80 g/ha): 80%
- pest or weed control at 20 g/ha ([18]; Avena fatua, 504 h, 20 g/ha, scored visually after 3 weeks, 100% = plants have died, 0% = like control plants): 80%
- pest or weed control at 20 g/ha [19, 28]: 100%
- pest or weed control at 80 g/ha ([19]; Tripleurospermum inodorum, 504 h, dosage 80 g/ha): 100%
- pest or weed control at 80 g/ha ([20]; Echinochloa crus-galli, 504 h): 90%
- pest or weed control at 20 g/ha ([21]; Echinochloa crus-galli, 504 h, dosage 20 g/ha): 80%
